{
  "source": "patent US12582721B2",
  "about": "“Molybdenum-based feed supplement for bees” (UNIVERSITE DE VERSAILLES—SAINT-QUENTIN-EN-YVELINES, priority 2020, dated 2026)",
  "key": {"[1]": {"test_system": "families of European domestic bees", "assay": "1st test in hives: morpho-productive characters", "format": "in vivo, Apis mellifera carpatica", "settings": "for Effects on the prolificity of the queen and the amount of honey collected compared to PPh4-Mo2O4-EDTA: 1st test, 2 mg per colony; for Power of the bee family / Prolificity of the queen / Quantity of honey at the first harvest / Quantity of honey at the first harvest, change versus batch I: overall dose 2 mg per colony; for Power of the bee family / Prolificity of the queen / Quantity of honey at the first harvest: spring feeding, 10 hives; for Quantity of honey at the first harvest, change versus batch I: value in brackets", "description": "Biological field tests were performed on families of European domestic bees of the species Apis mellifera […] experimental apiary located in the […] forestry district (Republic of Moldova). Feeding with the complex of the invention took place in spring. The biological tests were monitored up to the month of September. To administer the compounds to the bees, a very small amount of bioactive substance was added to two types of sugary feeding products for bees: candy in the form of a paste (70% sucrose, 30% honey) or syrup (50% sucrose, 50% water). The bees were fed by adding the candy/syrup to the feeder located in the inner upper part of the hive. The volume of syrup was adjusted based on the number of bee frames at the initial time, more precisely 200 g of candy per frame and 100 mL of syrup per frame, that is 2 kg of candy and 1 L of syrup per hive of 10 frames. For the first feeding step, candy in the form of a paste was only given once. […] From the start of the test to the end (after the second harvest), all the bees were monitored for several key morpho-producing parameters that reflect the development level of the colony and the vital aspects of the bees. The parameters studied are: the prolificity of the queen (fertility), the power of the colonies, the production of honey and the production of wax. These parameters were monitored in line with the zootechnical standards concerning the assessment of bee families, breeding and certification of beekeeping parental material approved by government decision No. 306 dated Apr. 28, 2011 of the Republic of Moldova. The production of honey (in kg) was determined for each family of bees by adding the amount of honey produced (honey from supers), extracted during the harvest season, to the amount of honey built up in the honeycomb (brood chamber) and left as food for the bees for the winter period (brood honey). The amount of honey produced will be determined for each family, for each extraction, by weighing the frames/honeycomb before and after extraction (with an accuracy of 0.1 kg), the weight difference being the quantity of honey produced that was extracted. The amount of honey left in the honeycomb to feed the bees was determined at the autumn visit (September), by weighing the honey frames and deducting (from their total weight) the total weight of the standard honeycomb frames; for […] type frames (435×300 mm)-0.6 kg, for Langstroth frames (435×230 mm)-0.5 kg. The power of the bee colony represents the number of bees present in the honeycomb at the time of the assessment. The assessment is performed three times per year: at the spring visit (March-April), at the end of spring (20-31 May) and at the visit in autumn (September). After these three assessments, the average power of the bee family is determined. The amount of bees (kg) is determined by multiplying the number of intervals between the frames, uniformly occupied by the bees, by the coefficient 0.25 for the standard […] frame (435×300 mm) and by 0.2 for the standard Langstroth frame (435×230 mm). The prolificity of the queen (eggs/24 hours) is determined during the visit at the end of the spring (20-31 May) by dividing the number of cells with the brood by 12 (duration of development of the brood, days), the number of eggs laid in 24 hours. The number of cells in the honeycomb is determined using the Netz frame by measuring the number of squares (5×5 cm) occupied by the brood, which is multiplied by 100, to give the total number of cells with the brood covered. The molecules tested, their concentration in solution and their annual overall doses are listed below: • 1. […] The concentration of the complex in the syrup: 1.5×10^-7 mol/L. Overall and annual product dose: 2 mg of complex per colony • 2. […] The concentration of the complex in syrup: 3.0×10^-7 mol/L. Overall and annual product dose: 2 mg of complex per colony • 3. […] Overall and annual product dose: 2 mg of complex per colony • 4. […]"}, "[2]": {"test_system": "healthy Madin-Darby canine kidney epithelial cells of the MDCK line", "assay": "Resazurin cell proliferation test, MDCK cells", "format": "cell-based", "settings": "healthy cells; IC50 equal to and greater than 100 μM considered no activity", "source_text": "For cell culture, human cervical epithelial cells of the HeLa line, human epithelial pancreatic adenocarcinoma cells of the BxPC-3 line and healthy Madin-Darby canine kidney epithelial cells of the MDCK line were used in this study. The Resazurin cell proliferation test was applied according to the literature (S. Anoopkumar-Dukie, J. B. Carey, T. Conere, E. O'Sullivan, F. N. van Pelt, A. Allshire, Br J Radiol 2005, 78, 945, DOI: 10.1259/bjr/54004230). As an indicator of the effectiveness of the experimental compounds on cell proliferation, the median inhibitory concentration (IC50) was used. The lower the IC50 value, the higher the activity (in this case, the cytotoxicity).\nFive formula I complexes were tested in this study in comparison to two reference anti-cancer compounds (“Cisplatin” and Doxorubicin complex)."}},
  "data": [
    {"smiles": "O.O.O.O.O.O.O=C([O-])CN(CCN(CC(=O)[O-])CC(=O)[O-])CC(=O)[O-].[Li+].[Li+].[O]=[Mo+]12[O][Mo+]1(=[O])[O]2", "note": "[Li—Mo2O4-EDTA, Li2[Mo2O4 (EDTA)]·6H2O]", "values": [
      {"measurement": "Effects on the prolificity of the queen and the amount of honey collected compared to PPh4-Mo2O4-EDTA", "setting": "[1]", "value": "higher effects"},
      {"measurement": "Power of the bee family", "setting": "[1]", "value": "103.3 % relative to batch I"},
      {"measurement": "Prolificity of the queen", "setting": "[1]", "value": "111.7 % relative to batch I"},
      {"measurement": "Quantity of honey at the first harvest", "setting": "[1]", "value": "143.1 % relative to batch I"},
      {"measurement": "Quantity of honey at the first harvest, change versus batch I", "setting": "[1]", "value": "+43.1%"},
      {"measurement": "IC50, MDCK", "setting": "[2]", "value": "Inactive"}
    ]},
    {"smiles": "O.O.O.O.O.O=C([O-])CN(CCN(CC(=O)[O-])CC(=O)[O-])CC(=O)[O-].[Na+].[Na+].[O]=[Mo+]12[O][Mo+]1(=[O])[O]2", "note": "[Na—Mo2O4-EDTA, Na2[Mo2O4 (EDTA)]·5H2O]", "values": [
      {"measurement": "Effects on the prolificity of the queen and the amount of honey collected compared to PPh4-Mo2O4-EDTA", "setting": "[1]", "value": "higher effects"},
      {"measurement": "Power of the bee family", "setting": "[1]", "value": "101.2 % relative to batch I"},
      {"measurement": "Prolificity of the queen", "setting": "[1]", "value": "113.3 % relative to batch I"},
      {"measurement": "Quantity of honey at the first harvest", "setting": "[1]", "value": "149.9 % relative to batch I"},
      {"measurement": "Quantity of honey at the first harvest, change versus batch I", "setting": "[1]", "value": "+49.9%"},
      {"measurement": "IC50, MDCK", "setting": "[2]", "value": "Inactive"}
    ]},
    {"smiles": "O=C([O-])CN(CCN(CC(=O)[O-])CC(=O)[O-])CC(=O)[O-].[O]=[Mo+]12[O][Mo+]1(=[O])[O]2.c1ccc([P+](c2ccccc2)(c2ccccc2)c2ccccc2)cc1.c1ccc([P+](c2ccccc2)(c2ccccc2)c2ccccc2)cc1", "note": "[PPh4—Mo2O4-EDTA, (PPh4)2[Mo2O4 (EDTA)]·2.5H2O]", "values": [
      {"measurement": "Power of the bee family", "setting": "[1]", "value": "102.1 % relative to batch I"},
      {"measurement": "Prolificity of the queen", "setting": "[1]", "value": "107.1 % relative to batch I"},
      {"measurement": "Quantity of honey at the first harvest", "setting": "[1]", "value": "113.3 % relative to batch I"},
      {"measurement": "Quantity of honey at the first harvest, change versus batch I", "setting": "[1]", "value": "+13.3%"},
      {"measurement": "IC50", "setting": "[2]", "value": "60.7 ± 12.1", "unit": "µM"}
    ]},
    {"smiles": "CC(=O)[O-].[Li+]", "note": "[Li—Ac, LiCH3COO·H2O, reference compound]", "values": [
      {"measurement": "Power of the bee family", "setting": "[1]", "value": "98.3 % relative to batch I"},
      {"measurement": "Prolificity of the queen", "setting": "[1]", "value": "108.8 % relative to batch I"},
      {"measurement": "Quantity of honey at the first harvest", "setting": "[1]", "value": "122.9 % relative to batch I"},
      {"measurement": "Quantity of honey at the first harvest, change versus batch I", "setting": "[1]", "value": "+22.9%"}
    ]}
  ]
}
